Here are results for one molecule from patent US20160310454A1, “LIVER X RECEPTOR AGONISTS IN THE TREATMENT OF EMPHYSEMA” (priority 2013, published 2016).

SMILES strings stand for the structures. “Also recorded” adds a separate entry of the source.

Assay [1] has as its system macrophage ABCA1-deficient mice exposed to cigarette smoke for 10 days. In words: Acute 10 day cigarette smoke exposure of macrophage ABCA1-deficient mice with treatment. The note with it: 25 mg/kg IP, 10 days smoke exposure. The assay is classed as in vivo, mouse. As for the experimental part: In order to determine if the mechanism identified in vitro contributed to changes in smoke induced lung inflammation in vivo, smoke studies were performed in vivo. […] Through investigation of the smoke-induced regulation of ABCA1, the present disclosure identifies unique pathways that can be targeted to prevent smoking-related emphysema and the progression of lung destruction.

The target in assay [2] is T1, farnesoid X receptor (FXR (NR4H4)) (Homo sapiens, UniProt Q96RI1).
T1 sequence (Q96RI1 1-486): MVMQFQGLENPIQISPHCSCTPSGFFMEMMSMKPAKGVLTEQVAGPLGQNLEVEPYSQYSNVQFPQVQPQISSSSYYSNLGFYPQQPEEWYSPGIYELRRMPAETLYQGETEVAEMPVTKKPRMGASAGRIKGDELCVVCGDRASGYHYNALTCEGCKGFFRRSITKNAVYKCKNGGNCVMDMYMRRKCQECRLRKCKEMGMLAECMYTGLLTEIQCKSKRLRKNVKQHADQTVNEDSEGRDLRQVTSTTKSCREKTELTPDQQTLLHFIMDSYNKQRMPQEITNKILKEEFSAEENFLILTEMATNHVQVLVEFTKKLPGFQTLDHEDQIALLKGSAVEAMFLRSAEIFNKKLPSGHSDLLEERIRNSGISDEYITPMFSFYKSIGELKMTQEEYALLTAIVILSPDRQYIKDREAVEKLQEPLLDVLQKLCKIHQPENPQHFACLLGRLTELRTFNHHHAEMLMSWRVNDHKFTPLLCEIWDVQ
The note with it: cited from earlier work.

For assay [3], the system named is mouse macrophages (bone marrow derived, ABCA1 fl/fl WT) treated with 5% CSE. In words: Mouse macrophages treated with 5% CSE with or without LXR agonist (RT-PCR, Western blot, zymography). It is filed as cell-based. How it is done: To prepare cigarette (CSE), the smoke from one cigarette (1.1 mg of nicotine, 15 mg of tar) was passed through 25 mls of phosphate buffered saline (PBS) (Mercer et al., 2004). The pH of the extracted solution was adjusted to 7.4 and then filtered (Mercer et al., 2004). CSE was added to the media at concentrations up to 5% (vol/vol) (Mercer et al., 2004).
In these experiments both mouse peritoneal and mouse bone marrow derived macrophages (BMdM) were utilized. Mouse peritoneal macrophages were isolated from peritoneal cavities of 3% thioglycolate injected mice on the 5th day from injection. To compare expression of genes in vitro and in vivo peritoneal macrophages were isolated from mice exposed to room air and cigarette smoke. For in vitro analysis cells were seeded on culture plates for 24 h and then treated with CSE. For in vivo analysis cells were collected from peritoneal cavity and mRNA was directly isolated. Mouse BMdMs were obtained from the following mice: ABCA1 fl/fl in a C57/BL6 background. Briefly, mice were first sacrificed by CO2 asphyxiation followed by cervical dislocation. After sacrificing the mouse the legs were amputated and the excess muscle tissue was removed so as to completely expose the femur and tibia, which were cleaned carefully. These samples were left in sterile PBS for the duration of the procedure. The cavity bones were then flushed with 10 ml of PBS using 26G needle. The obtained cells were then counted (usually 100-150 million cells per mouse) and centrifuged for 5 min at 2600 rpm. Hematopoietic cells can be separated by plastic adhesion; therefore the cells were incubated in petri dishes containing DMEM culture media and supplemented with 10% FBS and 1% antibiotics). Non-adherent progenitor cells were then collected after 2 hours of incubation in culture media and then seeded at a concentration of 4 million cells/ml in fresh culture media, supplemented with L-cell conditioned media containing macrophage colony stimulating factor (M-CSF) at a concentration of 20%. Approximately after 7-10 days of plating the cells become fully differentiated into macrophages and were ready for subsequent experiments. After treatment the culture supernatants, proteins, and total RNA were collected for analysis. […]
Total RNA was extracted from specimens of lung tissue 0.3 cm^3 in size with the use of the RNeasy kit (Qiagen, Germantown, Md.) (Goldklang et al., 2012). The RNA was then further processed to obtain cDNA, which was used for Real Time (RT) PCR analysis. TaqMan gene expression assays (Applied Biosystems, Carlsbad, Calif.) were performed to assess gene-transcript levels with the use of an ABI Prism 7900HT Sequence Detection System (Applera, Foster City, Calif.) (Goldklang et al., 2012). The following primers were used to check the respective gene expression: ABCA1 (Hs01059118_m1), ABCG1 (Hs00245154_m1), MMP-9 (Mm00442991_m1), IL-1β (Mm00434227_g1), TNF-α (Mm00443260_g1) and GAPDH (4352932E) from TaqMan Gene Expression Assays, Applied Biosystems, CA. β-actin was used as a control since it is a housekeeping gene.
The lungs of mice (-10 mg) were homogenized in 1 ml of Radioimmunoprecipitation assay (RIPA) buffer, and centrifuged at 14,000 g for 10 min. The protein concentration of each sample was measured using a Bradford reagent. The required amount of each sample was then used for western blot analysis, so that the concentration was equal for all samples. Proteins were first separated on the basis of molecular weight via sodium dodecyl sulphate polyacrylamide gel electrophoresis (SDS-PAGE). The same gel was then transferred onto a nitro cellulose membrane with the help of electric current (or electroblotting) that transfers the protein from polyacrylamide gel to the membrane. This membrane was then incubated in the solution containing primary antibodies, specific for the proteins of interest, ABCA1 and ABCG1, followed by the use of a secondary antibody that allowed the detection of protein by chemiluminescent. […]

For `O=S(=O)(c1ccccc1)N(CC(F)(F)F)c1ccc(C(O)(C(F)(F)F)C(F)(F)F)cc1` [T0901317, N-(2,2,2-trifluoroethyl)-N-[4-[2,2,2-trifluoro-1-hydroxy-1-(trifluoromethyl)ethyl]phenyl]-benzenesulfonamide], in assay [1], the “pulmonary inflammation (total cell counts in BAL)” value is “did not resolve”. In addition, in assay [2], the “activation of FXR compared with chenodeoxycholic acid” value is given as “more potently than a natural bile acid FXR ligand, chenodeoxycholic acid” and the “potency as activator of LXR versus FXR” value is on record as “much more potent activator of LXR than FXR”. In assay [3] (5% CSE, LXR agonist 3 μM), the “Expression of ABCA1 and ABCG1 (mRNA and protein)” value is given as “maintained at baseline levels”; the “cigarette smoke induced mRNA expression of TLR4/Myd88” value is on record as “inhibited”. Further, in assay [3] (5% CSE, LXR agonist 3 μM, Western blot), the “cigarette smoke induced phosphorylation of JNK and ERK” value was “inhibited”. Besides, in assay [3] (5% CSE, LXR agonist 3 μM, listed as LXR agonist), the “Expression of ABCA1 and ABCG1 (mRNA and protein)” value is reported as “re-established”. The “CSE induced upregulation of IL-1β and TNFα and downregulation of IL-10 (mRNA)” value in assay [3] (ABCA1 WT macrophages, 5% CSE, LXR agonist 3 μM) is given as “reversed back to baseline”. Moreover, the “mRNA and activity of MMP-9” value in assay [3] (ABCA1 WT macrophages, 5% CSE, LXR agonist 3 μM, gelatin zymography) is on record as “blocked; also recorded: reduced”. Further, the “cigarette smoke-induced pro-inflammatory cytokines and MMP expression and activity” value in assay [3] (mouse macrophages treated with CSE) is “blocked”. Besides, the “MMP-9 activity (zymography) and expression, MMP-13 expression and TNFα expression” value in assay [3] (smoke-induced, macrophages) is “decrease”.
